Measurements published in article PMC12211128, “Safety, tolerability, pharmacokinetic and pharmacodynamic effects of the muscarinic M1 positive allosteric modulator VU0467319 for Alzheimer’s disease: a single ascending-dose study in healthy participants” (Alzheimer's Research & Therapy, 2025).

Tested on: healthy participants
Assay: Auditory oddball ERP task
Format: in vivo, human
Details: for Auditory oddball P300 amplitude, targets vs standards, effect size d: post-dose session; for Mean amplitude over the parietal cortex, Auditory Oddball, Standard trials / Mean amplitude over the parietal cortex, Auditory Oddball, Target trials: mean (SD)
Method: Following the cognitive battery, an electrophysiology recording was set up. Visual and auditory ERPs were recorded using a 128-channel Geodesic sensor net (EGI, Inc., Eugene, OR; [37, 38]). The electrophysiological recording was sampled at 250 Hz with filters set at 0.1–100 Hz. During data collection, all electrodes were referenced to vertex (Cz). The recording session lasted approximately 30 min.
Auditory and visual oddball tasks were performed to assess attention in auditory and visual modalities. In the auditory task, a pair of two pure tones (single formant) at 1000 and 1500 Hz were the stimuli. In the visual task, the stimuli were a pair of letters (X & O). The assignment of stimuli to standard and target conditions (70% & 30% of the trials respectively), was counterbalanced across participants. Each participant was asked to press a different button using their preferred hand upon presentation of the standard and the target stimulus. On average, auditory and visual tasks lasted 6–7 min each.
ERP processing and Analysis: Single-trial ERPs were derived by extracting a 100-ms pre-stimulus baseline and a 900 ms post-stimulus interval. The trials were screened for ocular and motor artifacts using automated procedures with standard threshold settings (NetStation 4.4, EGI, Inc) and verified using manual review. Data for electrodes characterized by consistent artifacts were replaced using the spherical spline interpolation algorithm. If more than 15 electrodes within a trial were noisy, the entire trial was discarded. Remaining artifact-free trials were averaged separately for each condition (standard vs. oddball; novel vs. repeated images), re-referenced to an average reference, and baseline corrected. For individual participant’s data to be included in the analysis, each condition average had to have a minimum of 10 artifact-free trials.
Statistical analysis focused on a priori selected electrode clusters corresponding to frontal, central, and parietal midline locations (Fz, Cz, Pz in 10–20 notation), confirmed using spatial principal components analysis. Mean amplitudes were calculated within 250–400 ms (frontal P3a), 300–500 ms (parietal P300), and 500–800 ms (parietal P600) temporal windows. These a-priori selected windows were confirmed using temporal principal components analysis.
Analyses for the auditory and visual oddball ERPs focused on the parietal (P300) and frontal (P3a) responses to standard and target stimuli. Differences in the amplitude, latency, and scalp topography of the responses were examined. […] For the incidental memory paradigm, differences in the mean amplitude of the parietal P300/P600 responses to repeated vs. novel presentations. The amplitude of the parietal P300/P600 waveform measures stimulus recognition. A larger positive amplitude for repeated compared to novel images indicates spontaneous formation of a memory trace.
Auditory and visual oddball tasks were performed to assess attention in auditory and visual modalities (Comerchero & Polich, 1999; Polich, 2007). In the auditory task, a pair of two pure tones (single formant) at 1000 and 1500 Hz were the stimuli. Tones were equated in duration (300 ms) and rise/decay times. Tones were presented at 75 dB SPL (measured at the ear) through a speaker positioned 1 meter in front of the participant. In the visual task, the stimuli were a pair of letters (X & O). All stimuli were presented in random order for 500 ms in the center of a computer monitor positioned 1 meter in front of the participant. For both auditory and visual tasks, 200 trials were presented with the inter-stimulus interval varying randomly between 1000-1300 ms to prevent habituation to stimulus onset. The assignment of stimuli to standard and target conditions (70% & 30% of the trials respectively), was counterbalanced across participants. […]

[1] = VU319 120 mg, fasting, post-drug session, n = 9
[2] = VU319 120 mg, fasting, pre-drug session, n = 9
[3] = VU319 120 mg, fed, post-drug session, n = 9
[4] = VU319 120 mg, fed, pre-drug session, n = 9

SMILES: Cn1cc2c(-c3cc(F)c(CN4Cc5ncccc5C4=O)c(F)c3)cccc2n1 [VU319]
- Auditory oddball parietal amplitude, target vs standard, post- vs pre-dose, effect size d (60 mg, p = 0.002): 1.32
- Auditory oddball parietal amplitude, target vs standard, post- vs pre-dose, effect size d (120 mg, SAD, p = 0.18): 0.64
- Auditory oddball P300 amplitude, targets vs standards, effect size d (120 mg, fasted, p = 0.033): 0.8
- Auditory oddball P300 amplitude, targets vs standards, effect size d (120 mg, fed, p = 0.25): 0.85
- Mean amplitude over the parietal cortex, Auditory Oddball, Standard trials (SAD study, 60 mg, Post-Drug): 1.31 (1.02) µV
- Mean amplitude over the parietal cortex, Auditory Oddball, Target trials (SAD study, 60 mg, Post-Drug): 3.69 (1.83) µV
- Mean amplitude over the parietal cortex, Auditory Oddball, Standard trials (SAD study, 60 mg, Pre-Drug): 1.23 (0.96) µV
- Mean amplitude over the parietal cortex, Auditory Oddball, Target trials (SAD study, 60 mg, Pre-Drug): 2.0 (1.32) µV
- Mean amplitude over the parietal cortex, Auditory Oddball, Standard trials (SAD study, 120 mg, Post-Drug): 0.85 (1.41) µV
- Mean amplitude over the parietal cortex, Auditory Oddball, Target trials (SAD study, 120 mg, Post-Drug): 3.18 (1.24) µV
- Mean amplitude over the parietal cortex, Auditory Oddball, Standard trials (SAD study, 120 mg, Pre-Drug): 1.83 (1.04) µV
- Mean amplitude over the parietal cortex, Auditory Oddball, Target trials (SAD study, 120 mg, Pre-Drug): 3.23 (1.85) µV
- Mean amplitude over the parietal cortex, Auditory Oddball, Standard trials (SAD study, 240 mg, Post-Drug): 1.04 (1.54) µV
- Mean amplitude over the parietal cortex, Auditory Oddball, Target trials (SAD study, 240 mg, Post-Drug): 2.42 (1.53) µV
- Mean amplitude over the parietal cortex, Auditory Oddball, Standard trials (SAD study, 240 mg, Pre-Drug): 1.34 (1.02) µV
- Mean amplitude over the parietal cortex, Auditory Oddball, Target trials (SAD study, 240 mg, Pre-Drug): 2.94 (1.57) µV
- Mean amplitude over the parietal cortex, Auditory Oddball, Standard trials (SAD study, 400 mg, Post-Drug): 0.48 (0.92) µV
- Mean amplitude over the parietal cortex, Auditory Oddball, Target trials (SAD study, 400 mg, Post-Drug): 2.12 (0.34) µV
- Mean amplitude over the parietal cortex, Auditory Oddball, Standard trials (SAD study, 400 mg, Pre-Drug): 0.66 (1.09) µV
- Mean amplitude over the parietal cortex, Auditory Oddball, Target trials (SAD study, 400 mg, Pre-Drug): 1.7 (0.67) µV
- Mean amplitude over the parietal cortex, Auditory Oddball, Standard trials (SAD study, 600 mg, Post-Drug): 1.84 (1.22) µV
- Mean amplitude over the parietal cortex, Auditory Oddball, Target trials (SAD study, 600 mg, Post-Drug): 4.31 (2.13) µV
- Mean amplitude over the parietal cortex, Auditory Oddball, Standard trials (SAD study, 600 mg, Pre-Drug): 0.74 (1.24) µV
- Mean amplitude over the parietal cortex, Auditory Oddball, Target trials (SAD study, 600 mg, Pre-Drug): 3.08 (2.61) µV
- Mean amplitude over the parietal cortex, Auditory Oddball, Standard trials [1]: 1.17 (1.66) µV
- Mean amplitude over the parietal cortex, Auditory Oddball, Target trials [1]: 2.56 (2.38) µV
- Mean amplitude over the parietal cortex, Auditory Oddball, Standard trials [2]: 1.09 (1.78) µV
- Mean amplitude over the parietal cortex, Auditory Oddball, Target trials [2]: 2.11 (2.11) µV
- Mean amplitude over the parietal cortex, Auditory Oddball, Standard trials [3]: -0.07 (0.96) µV
- Mean amplitude over the parietal cortex, Auditory Oddball, Target trials [3]: 0.8 (1.11) µV
- Mean amplitude over the parietal cortex, Auditory Oddball, Standard trials [4]: 0.51 (1.65) µV
- Mean amplitude over the parietal cortex, Auditory Oddball, Target trials [4]: 2.32 (1.46) µV
